Flash point data for 87 molecules are collected here from a flash point compilation (Sun et al. 2020).

Molecules are shown by their SMILES.

Regarding `C=[C](OCC)[Sn]([CH2]CCC)([CH2]CCC)[CH2]CCC` [1-ETHOXYVINYLTRI-n-BUTYLTIN], the flash point was 113.00 °C.

As for `CCC[CH2][Sn]([CH2]CCC)([CH2]CCC)[c]1cccs1` [2-THIENYLTRI-n-BUTYLTIN], the flash point stood at 106.00 °C.

In turn, `C=C[CH2][Sn]([CH2]CCC)([CH2]CCC)[CH2]CCC` [ALLYLTRI-n-BUTYLTIN] came in with a flash point of 103.00 °C.

In turn, `C[Si](C)(C)[N]([Sn][N]([Si](C)(C)C)[Si](C)(C)C)[Si](C)(C)C` [BIS[BIS(TRIMETHYLSILYL)AMINO]TIN(II)] had a flash point of 56.00 °C.

On to `[CH3][Sn]([CH3])([CH3])[CH2]Cl` [CHLOROMETHYLTRIMETHYLTIN], for which the flash point was 39.00 °C.

`CCC[CH2][Sn]([Cl])([Cl])[CH2]CCC` [DI-n-BUTYLDICHLOROTIN] had a flash point of 168.00 °C.

Molecule `CCC[CH2][Sn]([CH2]CCC)([CH2]CCC)[N](C)C` [DIMETHYLAMINOTRI-n-BUTYLTIN] came in with a flash point of 115.00 °C.

Consider `CCCCCCC[CH2][Sn]([Cl])([Cl])[CH2]CCCCCCC` [DIOCTYLDICHLOROTIN], for which the flash point amounted to 204.00 °C.

For `C=[CH][Sn]([Cl])([Cl])[CH]=C` [DIVINYLDICHLOROTIN], the flash point was determined as 204.00 °C.

On to `CCC[CH2][Sn]([C]#Cc1ccccc1)([CH2]CCC)[CH2]CCC` [PHENYLETHYNYLTRI-n-BUTYLTIN], for which the flash point amounted to 113.00 °C.

As to `CCC[CH2][Sn]([CH2]CCC)([CH2]CCC)[S]c1ccccc1` [PHENYLTHIOTRI-n-BUTYLTIN], the flash point turned out to be 104.00 °C.

Molecule `C=C[CH2][Sn]([CH2]C=C)([CH2]C=C)[CH2]C=C` [TETRAALLYLTIN] registered a flash point of 75.00 °C.

With `C[CH2][Sn]([CH2]C)([CH2]C)[CH2]C` [TETRAETHYLTIN], the flash point worked out at 53.00 °C.

In turn, `CC[N](CC)[Sn]([N](CC)CC)([N](CC)CC)[N](CC)CC` [TETRAKIS(DIETHYLAMINO)TIN] yielded a flash point of 39.00 °C.

The molecule `C=[CH][Sn]([CH]=C)([CH]=C)[CH]=C` [TETRAVINYLTIN] returned a flash point of 40.00 °C.

`CCC[CH2][Sn]([CH2]CCC)([CH2]CCC)[O]C` [TRI-n-BUTYLMETHOXYTIN] registered a flash point of 98.00 °C.

As for `[Cl][Sn]([c]1ccccc1)([c]1ccccc1)[c]1ccccc1` [TRIPHENYLCHLOROTIN], the flash point amounted to 70.00 °C.

The source holds these as a separate data set.
Regarding `CC(C)(C)CCCl` [1-Chloro-3,3-dimethylbutane], the flash point was determined as 19.1 °C.

`CC(C)CCCl` [1-Chloro-3-methylbutane]: the flash point worked out at 16.1 °C.

As for `CCC(C)CCCCCl` (stereo not drawn) [1-Chloro-5-methylheptane], the flash point stood at 52.6 °C.

`CCCCCCCCCCCl` [1-Chlorodecane] displayed a flash point of 83.1 °C.

Molecule `CCCCCCCCCCCCCl` [1-Chlorododecane] yielded a flash point of 104.6 °C.

For `CCCCCCCCCCCCCCCCCCl` [1-Chloroheptadecane], the flash point came to 145.2 °C.

`CCCCCCCCCCCCCCCCCCCl` [1-Chlorooctadecane] came in with a flash point of 184.1 °C.

As for `CCCCCCCCCCCCCCCl` [1-Chlorotetradecane], the flash point was determined as 130.1 °C.

With `CC(C)(C)C(C)(C)Cl` [2-Chloro-2,3,3-trimethylbutane], the flash point was found to be 24.4 °C.

For `CC(C)C(C)(C)Cl` [2-Chloro-2,3-dimethylbutane], the flash point was determined as 15.0 °C.

The molecule `CC(C)CC(C)(C)Cl` [2-Chloro-2,4-dimethylpentane] registered a flash point of 29.8 °C.

`CC(C)CC(C)Cl` (stereo not drawn) [2-Chloro-4-methylpentane]: the flash point turned out to be 21 °C.

In turn, `CC(C)CCC(C)Cl` (stereo not drawn) [2-Chloro-5-methylhexane] came in with a flash point of 35.2 °C.

`CCCCCCCCCCC(C)Cl` (stereo not drawn) [2-Chlorododecane] returned a flash point of 99.6 °C.

Regarding `CCCCCC(C)Cl` (stereo not drawn) [2-Chloroheptane], the flash point was 39.2 °C.

The molecule `CCC(Cl)C(C)C` (stereo not drawn) [3-Chloro-2-methylpentane] came in with a flash point of 21 °C.

Regarding `CCCCC(Cl)(CC)CC` [3-Chloro-3-ethylheptane], the flash point came out at 60.0 °C.

Take `CCCC(C)(Cl)CC` (stereo not drawn) [3-Chloro-3-methylhexane]: the flash point stood at 33.6 °C.

For `CCCCCC(C)(Cl)CC` (stereo not drawn) [3-Chloro-3-methyloctane], the flash point was 60.0 °C.

Regarding `CCCCCC(Cl)CC` (stereo not drawn) [3-Chlorooctane], the flash point worked out at 52.6 °C.

Regarding `CCC(Cl)CC` [3-Chloropentane], the flash point worked out at 10 °C.

`CCCC(Cl)CCC` [4-Chloroheptane]: the flash point amounted to 39.2 °C.

`CCCCCCCC(Cl)CCCC` (stereo not drawn) [5-Chlorododecane] registered a flash point of 99.5 °C.

On to `CCC(C)(Cl)CCCC(C)C` (stereo not drawn) [6-Chloro-2,6-dimethyloctane], for which the flash point amounted to 69 °C.

This is another data set of the same source.
In turn, `CCC(C)(CC)C(C)C` [2,3-Dimethyl-3-ethylpentane] returned a flash point of 15 °C.

Take `CCCC(C)C(C)C` (stereo not drawn) [2,3-Dimethylhexane]: the flash point was determined as 10 °C.

With `CCC(C)C(C)C` (stereo not drawn) [2,3-Dimethylpentane], the flash point is -15 °C.

For the molecule `CCC(C)C(C)CC(C)C` (stereo not drawn) [2,4,5-Trimethylheptane], the flash point worked out at 31 °C.

For the molecule `CCC(C)CCCC(C)C` (stereo not drawn) [2,6-Dimethyloctane], the flash point worked out at 41 °C.

For `CC(C)C` [2-Methylpropane], the flash point was -87 °C.

`CCC(C)C(C)(C)CC` (stereo not drawn) [3,3,4-Trimethylhexane] gave a flash point of 15 °C.

In turn, `CCC(C)(C)CC` [3,3-Dimethylpentane] returned a flash point of -19 °C.

`CCC(C)C(C)C(C)CC` (stereo not drawn) [3,4,5-Trimethylheptane]: the flash point came to 31 °C.

For the molecule `CCCC(C)C(C)CC` (stereo not drawn) [3,4-Dimethylheptane], the flash point was 15 °C.

Consider `CCCC(CC)C(C)(C)C` (stereo not drawn) [3-Ethyl-2,2-dimethylhexane], for which the flash point was found to be 38 °C.

In turn, `CCC(C)(C(C)C)C(C)C` [3-Ethyl-2,3,4-trimethylpentane] gave a flash point of 31 °C.

Turning to `CCC(CC)CC` [3-Ethylpentane], the flash point was -18 °C.

In turn, `CCCC(CC)C(C)CC` (stereo not drawn) [4-Ethyl-3-methylheptane] yielded a flash point of 41 °C.

`CCCCC(CC)CCC` (stereo not drawn) [4-Ethyloctane]: the flash point was found to be 41 °C.

`CCCCCCCCCCCCCC` [Tetradecane]: the flash point was determined as 99 °C.

The source holds these as a separate data set.
Molecule `CCCCCCCCCCCCCC` [Tetradecane] had a flash point of 109.2 °C.

The source holds these as a separate data set.
`C=C[CH2][Ge]([CH3])([CH3])[CH3]` [ALLYLTRIMETHYLGERMANE] gave a flash point of 1.00 °C.

On to `[CH3][Ge]([CH3])([CH2]Cl)[CH2]Cl` [BIS(CHLOROMETHYL)DIMETHYLGERMANE], for which the flash point stood at 51.00 °C.

In turn, `CCC[CH2][Ge]([Cl])([Cl])[CH2]CCC` [DI-n-BUTYLDICHLOROGERMANE] gave a flash point of 107.00 °C.

`[Cl][Ge]([Cl])([c]1ccccc1)[c]1ccccc1` [DIPHENYLDICHLOROGERMANE] came in with a flash point of 160.00 °C.

`c1cc[c]([GeH2][c]2ccccc2)cc1` [DIPHENYLGERMANE] registered a flash point of 104.00 °C.

`C[CH2][Ge]([Cl])([Cl])[Cl]` [ETHYLTRICHLOROGERMANE]: the flash point was 51.00 °C.

With `[CH3][Ge]([CH3])([CH3])[Ge]([CH3])([CH3])[CH3]` [HEXAMETHYLDIGERMANE], the flash point is 14.00 °C.

The molecule `C=C(C)C(=O)O[CH2][Ge]([CH3])([CH3])[CH3]` [METHACRYLOXYMETHYLTRIMETHYLGERMANE] displayed a flash point of 63.00 °C.

`[CH3][Ge]([Cl])([Cl])[Cl]` [METHYLTRICHLOROGERMANE] returned a flash point of 10.00 °C.

As for `CCCC[O][Ge]([O]CCCC)([O]CCCC)[O]CCCC` [TETRA-n-BUTOXYGERMANE], the flash point is 112.00 °C.

The molecule `C[CH2][Ge]([CH2]C)([CH2]C)[CH2]C` [TETRAETHYLGERMANE] had a flash point of 42.00 °C.

For the molecule `C[N](C)[Ge]([N](C)C)([N](C)C)[N](C)C` [TETRAKIS(DIMETHYLAMINO)GERMANE], the flash point is 34.00 °C.

This is another data set of the same source.
Regarding `CC(C)[O-].CC(C)[O-].CCOC(=O)CC(C)=O.[Al+2]` [ALUMINUM DIISOPROPOXIDE ETHYLACETOACETATE], the flash point was 50.00 °C.

With `CCCC[O-].CCCC[O-].CCCC[O-].[Sb+3]` [ANTIMONY(III) n-BUTOXIDE], the flash point stood at 68.00 °C.

`C1CCC(PC2CCCCC2)CC1` [DICYCLOHEXYLPHOSPHINE]: the flash point was 110.00 °C.

Take `[CH3][Al]([CH3])[Cl]` [DIMETHYLALUMINUM CHLORIDE]: the flash point is -18.00 °C.

As to `CC(C)[O][Al]([CH3])[CH3]` [DIMETHYLISOPROPOXYALUMINUM], the flash point worked out at 5.00 °C.

The molecule `CCCCN(CCCC)C(=S)[S-].CCCCN(CCCC)C(=S)[S-].[Ni+2]` [NICKEL DI-n-BUTYLDITHIOCARBAMATE] gave a flash point of 260.00 °C.

Regarding `CCCC[O-].CCCC[O-].CCCC[O-].CCCC[O-].CCCC[O-].[Nb+5]` [NIOBIUM(V) n-BUTOXIDE], the flash point turned out to be 90.00 °C.

`CC(C)(C)CCCCCC(=O)[O-].[Ag+]` [SILVER NEODECANOATE] displayed a flash point of 102.00 °C.

For `CCCC[O-].CCCC[O-].CCCC[O-].CCCC[O-].CCCC[O-].[Ta+5]` [TANTALUM(V) n-BUTOXIDE], the flash point is 66.00 °C.

`CCCCCCCCCCCCCC[P+](CCCCCC)(CCCCCC)CCCCCC.[Cl-]` [TETRADECYL(TRIHEXYL)PHOSPHONIUM CHLORIDE] yielded a flash point of 118.00 °C.

The molecule `CC(C)[O-].CC(C)[O-].CC(C)[O-].[Cl-].[Ti+4]` [TITANIUM CHLORIDE TRIISOPROPOXIDE] yielded a flash point of 22.00 °C.

Molecule `CC(C)[O-].CC(C)[O-].CC(C)[O-].CC(C)[O-].[Ti+4]` [TITANIUM ISOPROPOXIDE] came in with a flash point of 25.00 °C.

Turning to `CC[N-]CC.CC[N-]CC.CC[N-]CC.CC[N-]CC.[Ti+4]` [TITANIUM TETRAKIS(DIETHYLAMIDE)], the flash point stood at 37.00 °C.

For `CC[N-]C.CC[N-]C.CC[N-]C.CC[N-]C.[Ti+4]` [TITANIUM TETRAKIS(ETHYLMETHYLAMIDE)], the flash point is 10.00 °C.

For `CCC[O-].CCC[O-].CCC[O-].CCC[O-].[Ti+4]` [TITANIUM n-PROPOXIDE], the flash point is 45.00 °C.

In turn, `[CH3][Ga]([CH3])[CH3]` [TRIMETHYLGALLIUM] showed a flash point of -1.00 °C.

Turning to `c1ccc(P(c2ccccc2)c2ccccc2)cc1` [TRIPHENYLPHOSPHINE], the flash point worked out at 182.00 °C.

The molecule `C[N](C)[Ga]([N](C)C)[N](C)C` [TRIS(DIMETHYLAMINO)GALLIUM] registered a flash point of 56.00 °C.
